The numbers were not newly measured in patent US9750683B2, “Antifungal compositions for the treatment of skin and nails” (Veloce BioPharma, LLC, priority 2012, dated 2017), which cites them from elsewhere.

Read-outs that look alike come from different tables or passages of the source.

As to `COC1=CC(=O)C[C@@H](C)[C@]12Oc1c(Cl)c(OC)cc(OC)c1C2=O` [griseofulvin], the ratio of penetration is listed as 60 (dissolved in DMSO, relative to the other solvents); 3 (dissolved in alcohol); 1 (dissolved in benzene); 40 (dissolved in dimethylacetamide); 7 (dissolved in dimethylformamide).
